Assays:
Format in all cases: cell-based
[1] = tested on: S. epidermidis ATCC ® 12228 ™; experiment: MIC, broth microdilution, S. epidermidis; settings: ≥85% inhibition of OD
Excerpt: (§1) Our skin microbiome houses billions of microbes, many of which are commensal and beneficial, however in some instances can trigger harmful skin inflammation. The potential for compounds to promote a healthy skin microbiome by targeting the “bad” bugs and not harming the “good” bugs is an emerging field of study in dermatology. The purpose of this study was to evaluate the antibacterial activity of the Chia seed extract composition of Example 14 compared to control Doxycycline applied in vitro to planktonic bacteria categorized as “good” (M. luteus ATCC® 4698™, S. hominis ATCC® 27847™, S. warneri ATCC® 27836™, S. epidermidis ATCC® 12228™, S. capitis ATCC®27841™, S. simulans ATCC® 27850™) and another six which are categorized as “bad” (S. aureus ATCC™ 29213™, S. aureus MRSA ATCC® 33592™, S. pyogenes ATTC® 19615™, C. acnes ATCC™ 6919™, C. xerosis ATCC® 373™, C. granulosum ATCC® 25564™).
(§2) Test agents and control were stored at recommended storage temperature until use. Minimum Inhibitory Concentrations (MIC) were determined in vitro using the broth microdilution method. […] Antimicrobial activity was defined as the lowest concentration of each test material that inhibited ≥85% of the optical density (OD) measured in broth media. […]

[2] = tested on: S. pyogenes ATCC ® 19615 ™; experiment: MIC, broth microdilution, S. pyogenes; settings: ≥85% inhibition of OD
Excerpt: as §1, §2

[3] = tested on: S. warneri ATCC ® 27836 ™; experiment: MIC, broth microdilution, S. warneri; settings: ≥85% inhibition of OD
Excerpt: as §1, §2

[4] = tested on: C. acnes ATCC ® 6919 ™; experiment: MIC, broth microdilution, C. acnes; settings: ≥85% inhibition of OD
Excerpt: as §1, §2

[5] = tested on: “bad” strains; experiment: MIC, broth microdilution, summary over “bad” strains; settings: range over the six “bad” strains
Excerpt: as §1, §2

[6] = tested on: S. simulans ATCC ® 27850 ™; experiment: MIC, broth microdilution, S. simulans; settings: ≥85% inhibition of OD
Excerpt: as §1, §2

[7] = tested on: S. aureus ATCC ® 29213 ™; experiment: MIC, broth microdilution, S. aureus; settings: ≥85% inhibition of OD
Excerpt: as §1, §2

[8] = tested on: C. xerosis ATCC ® 373 ™; experiment: MIC, broth microdilution, C. xerosis; settings: ≥85% inhibition of OD
Excerpt: as §1, §2

[9] = tested on: M. luteus ATCC ® 4698 ™; experiment: MIC, broth microdilution, M. luteus; settings: ≥85% inhibition of OD
Excerpt: as §1, §2

[10] = tested on: “good” skin bacteria strains; experiment: MIC, broth microdilution, summary over “good” strains; settings: range over the six “good” strains
Excerpt: as §1, §2

[11] = tested on: S. aureus MRSA ATCC ® 33591 ™; experiment: MIC, broth microdilution, S. aureus MRSA; settings: ≥85% inhibition of OD
[12] = tested on: C. granulosum ATCC ® 25564 ™; experiment: MIC, broth microdilution, C. granulosum; settings: ≥85% inhibition of OD
Excerpt: as §1, §2

[13] = tested on: S. hominis ATCC ® 27847 ™; experiment: MIC, broth microdilution, S. hominis; settings: ≥85% inhibition of OD
Excerpt: as §1, §2

[14] = tested on: S. capitis ATCC ® 27841 ™; experiment: MIC, broth microdilution, S. capitis; settings: ≥85% inhibition of OD
Excerpt: as §1, §2

How did the MIC [1] turn out when Doxycycline hyclate was run?
The MIC was “(0.00013) % w/v”.

What about the MIC ([1]; mean ± StDev of 3 experiments) of the same substance?
Its MIC is 1.30 ± 0.45 µg/mL.

What about the MIC [2] of the same substance?
The MIC was “(0.00001) % w/v”.

What about the MIC ([2]; mean ± StDev of 3 experiments) of the same substance?
Its MIC is 0.11 ± 0.07 µg/mL.

And the MIC [3]?
Its MIC is “(0.00003) % w/v”.

And the MIC ([3]; mean ± StDev of 3 experiments)?
The MIC was 0.31 ± 0.41 µg/mL.

And the MIC [4]?
The MIC was “(0.00003) % w/v”.

What about the MIC ([4]; mean ± StDev of 3 experiments) of the same substance?
The MIC was 0.26 ± 0.11 µg/mL.

What about the “MIC for “bad” strains” value [5] of the same substance?
Its value is 0.1 to 20.8 µg/mL.

And the MIC [6]?
The MIC was “(0.00013) % w/v”.

What about the MIC ([6]; mean ± StDev of 3 experiments) of the same substance?
The MIC was 1.04 ± 0.45 µg/mL.

What about the MIC [7] of the same substance?
The MIC was “(0.00002) % w/v”.

And the MIC ([7]; mean ± StDev of 3 experiments)?
The MIC was 0.20 ± 0.00 µg/mL.

What about the MIC [8] of the same substance?
The MIC was “(0.00003) % w/v”.

What about the MIC ([8]; mean ± StDev of 3 experiments) of the same substance?
Its MIC is 0.33 ± 0.11 µg/mL.

What about the MIC [9] of the same substance?
The MIC was “(0.00001) % w/v”.

What about the MIC ([9]; mean ± StDev of 3 experiments) of the same substance?
The MIC was 0.10 ± 0.00 µg/mL.

And the “MIC for “good” strains” value [10]?
The value was 0.1 to 10.4 µg/mL.

What about the MIC [11] of the same substance?
Its MIC is “(0.0020) % w/v”.

And the MIC ([11]; mean ± StDev of 3 experiments)?
Its MIC is 20.83 ± 7.22 µg/mL.

What about the MIC [12] of the same substance?
The MIC was “(0.00001) % w/v”.

What about the MIC ([12]; mean ± StDev of 3 experiments) of the same substance?
Its MIC is 0.13 ± 0.06 µg/mL.

And the MIC [13]?
The MIC was “(0.0010) % w/v”.

And the MIC ([13]; mean ± StDev of 3 experiments)?
The MIC was 10.42 ± 3.61 µg/mL.

What about the MIC [14] of the same substance?
The MIC was “(0.00007) % w/v”.

What about the MIC ([14]; mean ± StDev of 3 experiments) of the same substance?
Its MIC is 0.65 ± 0.23 µg/mL.
